# Measured values from PubChem BioAssay AID328 (DTP/NCI, 2004).
# Where “and” joins values, the source holds several entries; their conditions need not be identical. Equal entries are not always repeated. Toxic doses and inconclusive results are not listed.
# Test system: BDF1 mice, P388 leukemia ip, median survival T/C
# Experiment: NCI In Vivo Anticancer Drug Screen. Data for tumor model P388 Leukemia (intraperitoneal) in B6D2F1 (BDF1) mice
# Details: endpoint: median survival time, higher = longer survival
# How it was run: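 Steps: implant the tumour, treat one group with compound and another with vehicle, record survival, then divide treated by control.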
# [1] = dose: 0.5 mg/kg/injection, schedule: Q01DX009 (ip), vehicle: saline
# [2] = dose: 400.0 mg/kg/injection, schedule: Q04DX003 (ip), vehicle: saline with Tween-80
# [3] = dose: 400.0 mg/kg/injection, schedule: Q04DX003 (ip), vehicle: saline
# [4] = dose: 12.5 mg/kg/injection, schedule: Q01DX009 (ip), vehicle: Klucel (hydroxypropylcellulose) (HPC)
# [5] = dose: 25.0 mg/kg/injection, schedule: Q01DX009 (ip), vehicle: Klucel (hydroxypropylcellulose) (HPC)
# [6] = dose: 50.0 mg/kg/injection, schedule: Q01DX009 (ip), vehicle: Klucel (hydroxypropylcellulose) (HPC)
# [7] = dose: 100.0 mg/kg/injection, schedule: Q04DX003 (ip), vehicle: Klucel (hydroxypropylcellulose) (HPC)
structure (smiles),measurement,setting,value
CS(=O)(=O)Nc1ccc(Nc2c3ccccc3nc3cc(N)ccc23)cc1,T/C,"dose: 0.22 mg/kg/injection, schedule: Q01DX009 (ip), vehicle: saline",205 % of control
same,T/C,"dose: 0.33 mg/kg/injection, schedule: Q01DX009 (ip), vehicle: saline",205 % of control
same,T/C,"dose: 0.44 mg/kg/injection, schedule: Q04DX003 (ip), vehicle: saline",159 % of control
same,T/C,[1],222 % of control
same,T/C,"dose: 0.56 mg/kg/injection, schedule: Q01DX009 (ip), vehicle: saline",222 % of control
same,T/C,"dose: 0.66 mg/kg/injection, schedule: Q04DX003 (ip), vehicle: saline",168 % of control
same,T/C,"dose: 0.75 mg/kg/injection, schedule: Q01DX009 (ip), vehicle: saline",253 % of control
same,T/C,"dose: 0.83 mg/kg/injection, schedule: Q01DX009 (ip), vehicle: saline",275 % of control
same,T/C,"dose: 1.0 mg/kg/injection, schedule: Q04DX003 (ip), vehicle: saline",154 % of control
same,T/C,"dose: 1.25 mg/kg/injection, schedule: Q01DX009 (ip), vehicle: saline",268 % of control and 271 % of control
same,T/C,"dose: 1.5 mg/kg/injection, schedule: Q04DX003 (ip), vehicle: saline",190 % of control
same,T/C,"dose: 1.87 mg/kg/injection, schedule: Q01DX009 (ip), vehicle: saline",111 % of control
same,T/C,"dose: 2.5 mg/kg/injection, schedule: Q01DX009 (ip), vehicle: saline",97 % of control
same,T/C,"dose: 2.9 mg/kg/injection, schedule: Q04DX003 (ip), vehicle: saline",245 % of control
same,T/C,"dose: 4.4 mg/kg/injection, schedule: Q04DX003 (ip), vehicle: saline",168 % of control
same,T/C,"dose: 6.6 mg/kg/injection, schedule: Q04DX003 (ip), vehicle: saline",281 % of control
same,T/C,"dose: 10.0 mg/kg/injection, schedule: Q04DX003 (ip), vehicle: saline",195 % of control
COc1cc(/C=N/NC(=O)c2cccs2)cc(OC)c1OC,T/C,"dose: 100.0 mg/kg/injection, schedule: Q04DX003 (ip), vehicle: saline with Tween-80",90 % of control
same,T/C,"dose: 200.0 mg/kg/injection, schedule: Q04DX003 (ip), vehicle: saline with Tween-80",90 % of control
same,T/C,[2],100 % of control
CC(C)OC(=O)C1(N)CCCC1,T/C,"dose: 50.0 mg/kg/injection, schedule: Q01DX009 (ip), vehicle: saline",109 % of control
same,T/C,"dose: 100.0 mg/kg/injection, schedule: Q01DX009 (ip), vehicle: saline",109 % of control
same,T/C,"dose: 200.0 mg/kg/injection, schedule: Q01DX009 (ip), vehicle: saline",86 % of control
same,T/C,[2],113 % of control
same,T/C,[3],116 % of control
same,T/C,"dose: 600.0 mg/kg/injection, schedule: Q04DX003 (ip), vehicle: saline with Tween-80",86 % of control
same,T/C,"dose: 600.0 mg/kg/injection, schedule: Q04DX003 (ip), vehicle: saline",91 % of control
O=C1C(NCC(O)CO)=C(N2CC2)C(=O)C(NCC(O)CO)=C1N1CC1 (stereo unspecified),T/C,[1],98 % of control
same,T/C,"dose: 1.5 mg/kg/injection, schedule: Q01DX009 (ip), vehicle: saline",233 % of control
same,T/C,"dose: 2.0 mg/kg/injection, schedule: Q01DX009 (ip), vehicle: saline",116 % of control and 213 % of control
same,T/C,"dose: 4.0 mg/kg/injection, schedule: Q01DX009 (ip), vehicle: saline",241 % of control and 243 % of control
same,T/C,"dose: 6.0 mg/kg/injection, schedule: Q01DX009 (ip), vehicle: saline",107 % of control
COC1C(OC(=O)c2ccc(C)[nH]2)C(O)C(Oc2ccc3c(O)c(NC(=O)c4c[nH]c(C(=O)Nc5c(O)c6ccc(OC7OC(C)(C)C(OC)C(OC(=O)c8ccc(C)[nH]8)C7O)c(C)c6oc5=O)c4C)c(=O)oc3c2C)OC1(C)C (stereo unspecified),T/C,"dose: 100.0 mg/kg/injection, schedule: Q01DX009 (ip), vehicle: saline with Tween-80",90 % of control
same,T/C,"dose: 200.0 mg/kg/injection, schedule: Q01DX009 (ip), vehicle: saline with Tween-80",109 % of control
same,T/C,"dose: 400.0 mg/kg/injection, schedule: Q01DX009 (ip), vehicle: saline with Tween-80",163 % of control
CCCCCCCCCCCCCCOc1ccc(C=O)cc1OC,T/C,"dose: 100.0 mg/kg/injection, schedule: Q01DX001 (ip), vehicle: Klucel (hydroxypropylcellulose) (HPC)",100 % of control
same,T/C,"dose: 200.0 mg/kg/injection, schedule: Q01DX001 (ip), vehicle: Klucel (hydroxypropylcellulose) (HPC)",100 % of control
same,T/C,"dose: 400.0 mg/kg/injection, schedule: Q01DX001 (ip), vehicle: Klucel (hydroxypropylcellulose) (HPC)",100 % of control
NC(N)=Nc1ccc(C(=O)Oc2ccc(OC(=O)c3cccc(N=C(N)N)c3)cc2)cc1,T/C,"dose: 50.0 mg/kg/injection, schedule: Q01DX009 (ip), vehicle: water",96 % of control
same,T/C,"dose: 50.0 mg/kg/injection, schedule: Q04DX003 (ip), vehicle: water",103 % of control
same,T/C,"dose: 100.0 mg/kg/injection, schedule: Q01DX009 (ip), vehicle: water",96 % of control
same,T/C,"dose: 100.0 mg/kg/injection, schedule: Q04DX003 (ip), vehicle: water",94 % of control
same,T/C,"dose: 200.0 mg/kg/injection, schedule: Q01DX009 (ip), vehicle: water",99 % of control
same,T/C,"dose: 200.0 mg/kg/injection, schedule: Q04DX003 (ip), vehicle: water",100 % of control
same,T/C,"dose: 400.0 mg/kg/injection, schedule: Q01DX009 (ip), vehicle: water",114 % of control
same,T/C,"dose: 400.0 mg/kg/injection, schedule: Q04DX003 (ip), vehicle: water",105 % of control
Cc1ccc(N2CC(=O)N3CCCC(c4ccccc4)N3C(=O)C2)cc1 (stereo unspecified),T/C,"dose: 50.0 mg/kg/injection, schedule: Q01DX005 (ip), vehicle: saline with Tween-80",97 % of control
same,T/C,"dose: 100.0 mg/kg/injection, schedule: Q01DX005 (ip), vehicle: saline with Tween-80",94 % of control
same,T/C,"dose: 200.0 mg/kg/injection, schedule: Q01DX005 (ip), vehicle: saline with Tween-80",94 % of control
CN1CCN(CCOC(=O)N2c3ccccc3Sc3ccccc32)CC1,T/C,[4],100 % of control
same,T/C,[5],105 % of control
same,T/C,[6],100 % of control
C=C1C(=O)OC2CC(C)C3CC(=O)C(C)=C3C(O)C12 (stereo unspecified),T/C,[5],120 % of control
same,T/C,[6],112 % of control
CC(Br)CNC(=O)c1ccc([N+](=O)[O-])cc1 (stereo unspecified),T/C,"dose: 25.0 mg/kg/injection, schedule: Q04DX003 (ip), vehicle: Klucel (hydroxypropylcellulose) (HPC)",109 % of control
same,T/C,"dose: 50.0 mg/kg/injection, schedule: Q04DX003 (ip), vehicle: Klucel (hydroxypropylcellulose) (HPC)",109 % of control
same,T/C,[7],100 % of control
Cc1ccccc1-n1c(C)nc2ccccc2c1=O,T/C,[4],100 % of control
same,T/C,[5],96 % of control
same,T/C,[6],92 % of control
same,T/C,[7],104 % of control
same,T/C,"dose: 200.0 mg/kg/injection, schedule: Q04DX003 (ip), vehicle: Klucel (hydroxypropylcellulose) (HPC)",91 % of control
COC(=O)CS(=O)(=O)C(C)(C)C(=O)c1ccccc1,T/C,"dose: 75.0 mg/kg/injection, schedule: Q01DX001 (ip), vehicle: other",100 % of control
same,T/C,"dose: 150.0 mg/kg/injection, schedule: Q01DX001 (ip), vehicle: other",120 % of control
same,T/C,"dose: 300.0 mg/kg/injection, schedule: Q01DX001 (ip), vehicle: other",110 % of control
C=C(C)C(=O)O[C@@H]1C[C@@]2(C)O[C@@H]2C[C@H](O)/C(C)=C/[C@H]2OC(=O)C(=C)[C@@H]21,T/C,"dose: 6.0 mg/kg/injection, schedule: Q01DX009 (ip), vehicle: saline + alcohol",113 % of control
same,T/C,"dose: 12.0 mg/kg/injection, schedule: Q01DX009 (ip), vehicle: saline + alcohol",109 % of control
same,T/C,"dose: 48.0 mg/kg/injection, schedule: Q01DX009 (ip), vehicle: saline + alcohol",113 % of control
CC(=O)Nc1cc(NC(C)=O)cc([N+](=O)[O-])c1,T/C,"dose: 25.0 mg/kg/injection, schedule: Q04DX003 (ip), vehicle: saline",110 % of control
same,T/C,"dose: 50.0 mg/kg/injection, schedule: Q04DX003 (ip), vehicle: saline",106 % of control
same,T/C,"dose: 100.0 mg/kg/injection, schedule: Q04DX003 (ip), vehicle: saline",100 % of control
same,T/C,"dose: 200.0 mg/kg/injection, schedule: Q04DX003 (ip), vehicle: saline",107 % of control
same,T/C,[3],103 % of control
C/C(=C\Cl)CO,T/C,"dose: 56.25 mg/kg/injection, schedule: Q01DX001 (ip), vehicle: saline",95 % of control
same,T/C,"dose: 56.25 mg/kg/injection, schedule: Q04DX003 (ip), vehicle: saline",100 % of control
same,T/C,"dose: 112.5 mg/kg/injection, schedule: Q01DX001 (ip), vehicle: saline",100 % of control
same,T/C,"dose: 112.5 mg/kg/injection, schedule: Q04DX003 (ip), vehicle: saline",95 % of control
same,T/C,"dose: 150.0 mg/kg/injection, schedule: Q01DX009 (ip), vehicle: alcohol",95 % of control
same,T/C,"dose: 225.0 mg/kg/injection, schedule: Q01DX001 (ip), vehicle: saline",90 % of control
same,T/C,"dose: 225.0 mg/kg/injection, schedule: Q01DX009 (ip), vehicle: alcohol",100 % of control
same,T/C,"dose: 225.0 mg/kg/injection, schedule: Q04DX003 (ip), vehicle: saline",90 % of control
